# Tests used:
# Assay type in all cases: in vivo
# [1] = system: male adult Sprague Dawley rats; experiment: Sleep-wake organization (EEG/EOG/EMG) in rats after acute i.p. administration; details: rats, mean ± s.e.m of 8 rats; for Duration Active wake / Duration Deep sleep / Duration Intemediate stage / Duration Light sleep / Duration Passive wake / Duration REM sleep: 16 h recording
# [2] = system: C57BL/6J, AKR/J and DBA/2J mice; experiment: Sleep onset and vigilance states in three inbred mouse strains after IP injection
# Procedure: At least 7 adult male mice of inbred strains C57BL/6J, AKR/J, and DBA/2J were recorded in 2 sessions of 72 continuous hours. The first 24 h in each session are considered as baseline followed the next day by the saline injection and the next day by 150 mg/kg of the test compound in the first session and 5 mg/kg d-amphetamine in the second session. The two sessions were separated by 7 days (wash-out period) and all injections were intraperitoneal (IP) and performed at light onset (9 am) in a volume of 5 ml/kg.
# [3] = system: hypocretin cell ablated narcoleptic mice (prepororexin/ataxin-3 transgenic) and their littermate wild-type mice; experiment: Sleep parameters (EEG/EMG polygraph) in narcoleptic and wild-type mice after oral dosing
# From the text: The polygraph signal (EEG and EMG) was captured with SleepSign (Kissei Comtech), and the sleep stage was visually scored with 10 sec epoch for wakefulness, non-REM sleep and REM sleep. Scoring criteria are: Wakefulness is characterized by desynchronized low-amplitude, mixed frequency (>4 Hz) EEG and high EMG activity. Rhythmic alpha (8-9 Hz) wave (with high EMG activities) may also appear. Non-REM is characterized by synchronized, high-amplitude, low-frequency (0.25-4 Hz) with reduced EMG activity (compared to wakefulness). EEG activity in REM sleep is similar to that in wakefulness, with desynchronized, mixed frequency low amplitude waves. Rhythmic alpha (8-9 Hz) wave with reduced EMG activities may also appear. […] is reduced even further and in many cases, completely absent. Same muscle twitching may be apparent in the EMG trace during REM sleep.
# Three drug doses of the test compound (50, 100 and 150 mg/kg PO) plus vehicle, were orally administered at ZT 2 (2 hours after light on) or ZT14 (2 hours after light off), and the effects on sleep were monitored for 6 hours after the drug administration (the sleep data was collected for 30 hours after the drug injection, and are available for further analysis). The doses for modafinil were 50 and 200 mg/kg PO (plus vehicle), and modafinil was also administered at ZT 2 and […]
# If the polygraph signals of some mice were not sufficient to score the sleep stage with accuracy (especially bad EMG), data from these animals were excluded, and the minimum of 5 animals (except for the highest dose of the test compound in wild-type mice in dark period, n=4) were included for the data analysis and number of animals were indicated in the figures.
# Effects of test compound and modafinil on the amount of wake, non-REM sleep, REM sleep (cumulative seconds), number of episodes for each sleep stage during 6 hours, and mean wake/sleep-bout lengths (seconds) were analyzed in each animal and the mean of each parameter was calculated in each genotype. The effects of compounds on wake and sleep amounts are useful to evaluate the wake promoting potency, and the number of episodes for each sloop stage and the mean wake/sleep bout length are parameters for evaluating the sleep fragmentation. Amphetamine and modafinil, two main wake-promoting compounds currently used for the treatment of EDS associated with various etiologies (narcolepsy, idiopathic hypersomnia and secondary EDS), are known to increase wake time and prolong wake bout length in normal and EDS conditions.
# A comparison of the effects between hypocretin deficient and wild-type mice is very useful in determining the wake-promotion of the test compound is dependent on the availability of hypocretins, and if there is a possible change in the sensitivity of the receptive mechanisms of test compound in narcoleptic mice due to the hypocretin ligand deficiency.
# [4] = system: adult human subjects with moderate or severe major depression without psychotic features; experiment: Randomized double-blind placebo- and active-controlled 6-week study in major depression; details: 20 mg/day
# From the text: This was a randomized, double-blind, parallel-group, active, and placebo-controlled, multicenter study conducted in the U.S. (23 centers) and Canada (4 centers). There were 2 phases: a pretreatment phase (screening/washout and a baseline visit) and a 6-week, double-blind treatment phase. Paroxetine, a positive control, was included to evaluate assay sensitivity. After washout (if needed) of prohibited substances, subjects were randomly assigned (1:1:1:1) to receive the test compound titrated to a target dose of 200 mg/day or 400 mg/day, matching placebo, or a fixed dose (20 mg/day) of paroxetine. Study drug was given twice daily for 6 weeks. Efficacy and safety were assessed weekly during the double-blind phase. Subjects completing the study underwent an Exit Interview (“Your Health and Well-Being”) and completed an Assessment of Benefits of Clinical-trial Drug-treatment (ABCD) questionnaire (U.S. sites only).
smiles,measurement,setting,value
"CC(N)Cc1ccccc1 (stereo not shown) [Amphetamine, amphetamine]",Duration Active wake,[1]; 1 mg/kg i.p.,382.4 ± 19.6 min
same,Duration Deep sleep,[1]; 1 mg/kg i.p.,188.0 ± 19.6 min
same,Duration Intemediate stage,[1]; 1 mg/kg i.p.,4.0 ± 19.6 min
same,Duration Light sleep,[1]; 1 mg/kg i.p.,242.7 ± 19.6 min
same,Duration Passive wake,[1]; 1 mg/kg i.p.,50.0 ± 19.6 min
same,Duration REM sleep,[1]; 1 mg/kg i.p.,88.6 ± 19.6 min
same,Latency ISWS,[1]; 1 mg/kg i.p.,140.6 ± 13.4 min
same,Latency REM sleep,[1]; 1 mg/kg i.p.,208.6 ± 14.4 min
same,Latency dSWS,[1]; 1 mg/kg i.p.,161.7 ± 5.3 min
same,Shifts: Shift from ISWS to AW,[1]; 1 mg/kg i.p.,198.8 ± 50.1 number
same,Shifts: Shift from ISWS to PW,[1]; 1 mg/kg i.p.,64.4 ± 30.5 number
same,Shifts: Shift from REMS to AW,[1]; 1 mg/kg i.p.,66.5 ± 19.1 number
same,Shifts: Shift from REMS to PW,[1]; 1 mg/kg i.p.,5.8 ± 4.8 number
same,Shifts: Shift from dSWS to AW,[1]; 1 mg/kg i.p.,11.7 ± 7.2 number
same,Shifts: Shift from dSWS to PW,[1]; 1 mg/kg i.p.,37.7 ± 30.0 number
same,Duration Active wake,[1]; 3 mg/kg i.p.,441.8 ± 15.7 min
same,Duration Deep sleep,[1]; 3 mg/kg i.p.,207.6 ± 17.7 min
same,Duration Intemediate stage,[1]; 3 mg/kg i.p.,4.0 ± 1.0 min
same,Duration Light sleep,[1]; 3 mg/kg i.p.,187.9 ± 23.9 min
same,Duration Passive wake,[1]; 3 mg/kg i.p.,43.5 ± 4.4 min
same,Duration REM sleep,[1]; 3 mg/kg i.p.,71.4 ± 4.1 min
same,Latency ISWS,[1]; 3 mg/kg i.p.,228.2 ± 25.0 min
same,Latency REM sleep,[1]; 3 mg/kg i.p.,338.6 ± 24.3 min
same,Latency dSWS,[1]; 3 mg/kg i.p.,242.0 ± 19.4 min
same,Shifts: Shift from ISWS to AW,[1]; 3 mg/kg i.p.,178.7 ± 46.6 number
same,Shifts: Shift from ISWS to PW,[1]; 3 mg/kg i.p.,62.4 ± 26.1 number
same,Shifts: Shift from REMS to AW,[1]; 3 mg/kg i.p.,59.3 ± 17.8 number
same,Shifts: Shift from REMS to PW,[1]; 3 mg/kg i.p.,3.3 ± 2.6 number
same,Shifts: Shift from dSWS to AW,[1]; 3 mg/kg i.p.,14.8 ± 7.8 number
same,Shifts: Shift from dSWS to PW,[1]; 3 mg/kg i.p.,26.6 ± 16.8 number
same,Duration Active wake,[1]; 10 mg/kg i.p.,498.7 ± 19.0 min
same,Duration Deep sleep,[1]; 10 mg/kg i.p.,181.2 ± 22.0 min
same,Duration Intemediate stage,[1]; 10 mg/kg i.p.,4.0 ± 1.0 min
same,Duration Light sleep,[1]; 10 mg/kg i.p.,182.0 ± 26.3 min
same,Duration Passive wake,[1]; 10 mg/kg i.p.,35.6 ± 4.7 min
same,Duration REM sleep,[1]; 10 mg/kg i.p.,53.6 ± 5.0 min
same,Latency ISWS,[1]; 10 mg/kg i.p.,284.7 ± 56.1 min
same,Latency REM sleep,[1]; 10 mg/kg i.p.,440.8 ± 57.8 min
same,Latency dSWS,[1]; 10 mg/kg i.p.,367.3 ± 5.5 min
same,Shifts: Shift from ISWS to AW,[1]; 10 mg/kg i.p.,201.7 ± 66.1 number
same,Shifts: Shift from ISWS to PW,[1]; 10 mg/kg i.p.,49.0 ± 25.5 number
same,Shifts: Shift from REMS to AW,[1]; 10 mg/kg i.p.,50.0 ± 16.2 number
same,Shifts: Shift from REMS to PW,[1]; 10 mg/kg i.p.,2.2 ± 1.9 number
same,Shifts: Shift from dSWS to AW,[1]; 10 mg/kg i.p.,9.7 ± 5.9 number
same,Shifts: Shift from dSWS to PW,[1]; 10 mg/kg i.p.,11.6 ± 8.9 number
"COC(=O)[C@H]1[C@@H](OC(=O)c2ccccc2)C[C@@H]2CC[C@H]1N2C [Cocaine, cocaine]",Duration Active wake,[1]; 1 mg/kg i.p.,331.5 ± 41.5 min
same,Duration Deep sleep,[1]; 1 mg/kg i.p.,162.9 ± 26.3 min
same,Duration Intemediate stage,[1]; 1 mg/kg i.p.,6.7 ± 1.0 min
same,Duration Light sleep,[1]; 1 mg/kg i.p.,293.2 ± 26.3 min
same,Duration Passive wake,[1]; 1 mg/kg i.p.,69.8 ± 11.0 min
same,Duration REM sleep,[1]; 1 mg/kg i.p.,84.2 ± 8.1 min
same,Latency ISWS,[1]; 1 mg/kg i.p.,69.9 ± 51.2 min
same,Latency REM sleep,[1]; 1 mg/kg i.p.,74.3 ± 12.1 min
same,Latency dSWS,[1]; 1 mg/kg i.p.,79.3 ± 26.7 min
same,Shifts: Shift from ISWS to AW,[1]; 1 mg/kg i.p.,184.1 ± 48.1 number
same,Shifts: Shift from ISWS to PW,[1]; 1 mg/kg i.p.,128.6 ± 45.2 number
same,Shifts: Shift from REMS to AW,[1]; 1 mg/kg i.p.,74.5 ± 21.5 number
same,Shifts: Shift from REMS to PW,[1]; 1 mg/kg i.p.,17.0 ± 8.8 number
same,Shifts: Shift from dSWS to AW,[1]; 1 mg/kg i.p.,10.1 ± 5.6 number
same,Shifts: Shift from dSWS to PW,[1]; 1 mg/kg i.p.,66.6 ± 48.2 number
same,Duration Active wake,[1]; 3 mg/kg i.p.,324.8 ± 18.3 min
same,Duration Deep sleep,[1]; 3 mg/kg i.p.,172.6 ± 34.3 min
same,Duration Intemediate stage,[1]; 3 mg/kg i.p.,5.7 ± 0.6 min
same,Duration Light sleep,[1]; 3 mg/kg i.p.,303.2 ± 42.5 min
same,Duration Passive wake,[1]; 3 mg/kg i.p.,66.7 ± 8.9 min
same,Duration REM sleep,[1]; 3 mg/kg i.p.,76.7 ± 6.3 min
same,Latency ISWS,[1]; 3 mg/kg i.p.,41.5 ± 9.2 min
same,Latency REM sleep,[1]; 3 mg/kg i.p.,112.0 ± 12.2 min
same,Latency dSWS,[1]; 3 mg/kg i.p.,68.6 ± 7.6 min
same,Shifts: Shift from ISWS to AW,[1]; 3 mg/kg i.p.,218.5 ± 50.6 number
same,Shifts: Shift from ISWS to PW,[1]; 3 mg/kg i.p.,142.2 ± 48.5 number
same,Shifts: Shift from REMS to AW,[1]; 3 mg/kg i.p.,56.0 ± 16.4 number
same,Shifts: Shift from REMS to PW,[1]; 3 mg/kg i.p.,10.7 ± 6.9 number
same,Shifts: Shift from dSWS to AW,[1]; 3 mg/kg i.p.,10.2 ± 6.7 number
same,Shifts: Shift from dSWS to PW,[1]; 3 mg/kg i.p.,64.5 ± 42.6 number
same,Duration Active wake,[1]; 10 mg/kg i.p.,347.3 ± 16.5 min
same,Duration Deep sleep,[1]; 10 mg/kg i.p.,171.9 ± 23.8 min
same,Duration Intemediate stage,[1]; 10 mg/kg i.p.,6.3 ± 1.1 min
same,Duration Light sleep,[1]; 10 mg/kg i.p.,294.6 ± 24.4 min
same,Duration Passive wake,[1]; 10 mg/kg i.p.,55.0 ± 10.4 min
same,Duration REM sleep,[1]; 10 mg/kg i.p.,74.7 ± 7.5 min
same,Latency ISWS,[1]; 10 mg/kg i.p.,101.8 ± 6.9 min
same,Latency REM sleep,[1]; 10 mg/kg i.p.,192.1 ± 18.5 min
same,Latency dSWS,[1]; 10 mg/kg i.p.,138.8 ± 8.7 min
same,Shifts: Shift from ISWS to AW,[1]; 10 mg/kg i.p.,201.2 ± 53.6 number
same,Shifts: Shift from ISWS to PW,[1]; 10 mg/kg i.p.,132.6 ± 48.2 number
same,Shifts: Shift from REMS to AW,[1]; 10 mg/kg i.p.,52.3 ± 16.5 number
same,Shifts: Shift from REMS to PW,[1]; 10 mg/kg i.p.,9.2 ± 5.8 number
same,Shifts: Shift from dSWS to AW,[1]; 10 mg/kg i.p.,10.4 ± 6.2 number
same,Shifts: Shift from dSWS to PW,[1]; 10 mg/kg i.p.,37.6 ± 23.8 number
C[C@H](N)Cc1ccccc1 [d-amphetamine],amount of wakefulness compared with 150 mg/kg test compound,[2]; 5 mg/kg IP,failed to induce the same amount of wakefulness as 150 mg/kg of test compound
same,genotype effect on induced wakefulness (AK vs D2 mice),[2]; 5 mg/kg IP,genotype-dependent effect
same,dose-response of induced wakefulness (sleep latency),"[2]; C57BL/6J mice, 1, 2, 4, 5, 8 mg/kg IP",dose-dependent manner between 1 and 5 mg/kg
NC(=O)C[S+]([O-])C(c1ccccc1)c1ccccc1 (stereo not shown) [modafinil],effect on wakefulness,"[3]; active (dark) period, ZT14, PO",dose-dependently increased wakefulness
same,wake amount in narcoleptic mice relative to wild-type baseline,"[3]; active period, 200 mg/kg PO",did not bring the wake amount to that of the wild-type baseline levels
same,dose of test compound whose wake promoting effect corresponds to 200 mg/kg of modafinil,"[3]; resting period, PO",~50 mg/kg
same,effect on REM sleep,"[3]; resting period, PO",did not strongly reduce REM sleep
same,wake-promoting effects,"[3]; resting period, wild-type and hypocretin-deficient narcoleptic mice, PO",modest
Fc1ccc([C@@H]2CCNC[C@H]2COc2ccc3c(c2)OCO3)cc1 [paroxetine],"Insomnia, treatment-emergent adverse event incidence",[4]; 6 weeks,17%
same,ABCD questionnaire items (of 51) with statistically significant superiority to placebo,[4]; post hoc analyses,14 items
